Laboratory results as given in patent US20250115620A1, “BRIDGED TRICYCLIC CARBAMOYLPYRIDONE COMPOUNDS AND USES THEREOF” (Gilead Sciences, Inc., priority 2022, published 2025).
Like-named read-outs stand apart in the source and are kept apart here.

What was measured:
in vitro = settings: human, uninfected MT-4 cells
Method: Compounds were serially diluted (1:3) in DMSO on 384-well polypropylene plates and further diluted 200-fold into complete RPMI media (10% FBS, 1% P/S) using the Biotek Micro Flow and Labcyte ECHO acoustic dispenser. […] Infected and uninfected MT-4 cells were further diluted in complete RPMI media and added to each plate using a Micro Flow dispenser. After 5 days incubation in a humidified and temperature controlled incubator (37° C.), Cell Titer Glo (Promega) was added to the assay plates and chemiluminescence read using an Envision plate-reader.
Assays were performed as above except uninfected MT-4 cells were added to each well containing test compound. In addition, 10 μM puromycin was added to the last column of each assay plate to assess a base level of cytotoxicity.

pLAI reporter virus = experiment: microbe, parasite or virus in culture; format: cell-based, HIV; settings: Human immunodeficiency virus 1, MT4, 72 h
HIV-1 (IIIB) = experiment: microbe, parasite or virus in culture; format: cell-based; settings: Human immunodeficiency virus 1, IIIB, MT4, 120 h, HIV-1 (IIIB) in MT-4 cells, 5 days incubation, Cell Titer Glo; read-out: MT4 EC50

Compound: COC1=NO[C@@]2(CC[C@H](C)N3C[C@H]2n2cc(C(=O)NCc4c(F)cc(F)cc4F)c(=O)c(O)c2C3=O)[C@H]1C [Example 85, (3′S,4R,5S,7′R)-12′-hydroxy-3-methoxy-3′,4-dimethyl-1′,11′-dioxo-N-(2,4,6-trifluorobenzyl)-1′,4′,5′,11′-tetrahydro-3′H,4H,7′H-spiro[isoxazole-5,6′-[2,7]methanopyrido[1,2-a][1,4]diazonine]-10′-carboxamide]
- CC50 at 5 days (in vitro): 29600 nM
- EC50 (pLAI reporter virus; read-out: RLUC 50% HS EC50): 28.7 nM
- EC50 (pLAI reporter virus; read-out: RLUC CCM EC50): 0.2 nM
- EC50 (HIV-1 (IIIB)): 1 nM

Compound: COC1=NO[C@@]2(CC[C@H](C)N3C[C@H]2n2cc(C(=O)NCc4c(F)cc(F)cc4F)c(=O)c(O)c2C3=O)[C@@H]1F [Example 86, (3′S,4S,5R,7′R)-4-fluoro-12′-hydroxy-3-methoxy-3′-methyl-1′,11′-dioxo-N-(2,4,6-trifluorobenzyl)-1′,4′,5′,11′-tetrahydro-3′H,4H,7′H-spiro[isoxazole-5,6′-[2,7]methanopyrido[1,2-a][1,4]diazonine]-10′-carboxamide]
- CC50 at 5 days (in vitro): 11900 nM
- EC50 (pLAI reporter virus; read-out: RLUC 50% HS EC50): 68.4 nM
- EC50 (pLAI reporter virus; read-out: RLUC CCM EC50): 0.3 nM
- EC50 (HIV-1 (IIIB)): 1.2 nM

Compound: COC1=NO[C@@]2(CC[C@H](C)N3C[C@H]2n2cc(C(=O)NCc4c(F)cc(F)cc4F)c(=O)c(O)c2C3=O)[C@H]1F [Example 87, (3′S,4R,5R,7′R)-4-fluoro-12′-hydroxy-3-methoxy-3′-methyl-1′,11′-dioxo-N-(2,4,6-trifluorobenzyl)-1′,4′,5′,11′-tetrahydro-3′H,4H,7′H-spiro[isoxazole-5,6′-[2,7]methanopyrido[1,2-a][1,4]diazonine]-10′-carboxamide]
- CC50 at 5 days (in vitro): 10500 nM
- EC50 (pLAI reporter virus; read-out: RLUC 50% HS EC50): 31.8 nM
- EC50 (pLAI reporter virus; read-out: RLUC CCM EC50): 0.2 nM
- EC50 (HIV-1 (IIIB)): 1.2 nM

Compound: C[C@H]1CC[C@@]2(ON=C(CF)[C@@H]2O)[C@H]2CN1C(=O)c1c(O)c(=O)c(C(=O)NCc3c(F)cc(F)cc3F)cn12 [Example 88, (3′S,4S,5R,7′R)-3-(fluoromethyl)-4,12′-dihydroxy-3′-methyl-1′,11′-dioxo-N-(2,4,6-trifluorobenzyl)-1′,4′,5′,11′-tetrahydro-3′H,4H,7′H-spiro[isoxazole-5,6′-[2,7]methanopyrido[1,2-a][1,4]diazonine]-10′-carboxamide]
- CC50 at 5 days (in vitro): ≥ 50000 nM
- EC50 (pLAI reporter virus; read-out: RLUC 50% HS EC50): 280 nM
- EC50 (pLAI reporter virus; read-out: RLUC CCM EC50): 0.3 nM
- EC50 (HIV-1 (IIIB)): 2.6 nM

Compound: C[C@H]1CC[C@@]2(ON=C(CF)[C@@H]2O)[C@H]2CN1C(=O)c1c(O)c(=O)c(C(=O)NCc3ccc(F)cc3F)cn12 [Example 89, (3′S,4S,5R,7′R)—N-(2,4-difluorobenzyl)-3-(fluoromethyl)-4,12′-dihydroxy-3′-methyl-1′,11′-dioxo-1′,4′,5′,11′-tetrahydro-3′H,4H,7′H-spiro[isoxazole-5,6′-[2,7]methanopyrido[1,2-a][1,4]diazonine]-10′-carboxamide]
- CC50 at 5 days (in vitro): ≥ 50000 nM
- EC50 (pLAI reporter virus; read-out: RLUC 50% HS EC50): 63.8 nM
- EC50 (pLAI reporter virus; read-out: RLUC CCM EC50): 0.4 nM
- EC50 (HIV-1 (IIIB)): 1.3 nM

Compound: CC1=NO[C@@]2(CC[C@H](C)N3C[C@H]2n2cc(C(=O)NCc4ccc(F)cc4F)c(=O)c(O)c2C3=O)O1 [Example 91, (3′S,5R,7′R)—N-(2,4-difluorobenzyl)-12′-hydroxy-3,3′-dimethyl-1′,11′-dioxo-1′,4′,5′,11′-tetrahydro-3′H,7′H-spiro[[1,4,2]dioxazole-5,6′-[2,7]methanopyrido[1,2-a][1,4]diazonine]-10′-carboxamide]
- CC50 at 5 days (in vitro): 20000 nM
- EC50 (pLAI reporter virus; read-out: RLUC 50% HS EC50): 158 nM
- EC50 (pLAI reporter virus; read-out: RLUC CCM EC50): 0.2 nM
- EC50 (HIV-1 (IIIB)): 1.4 nM

Compound: CC1=NO[C@@]2(CC[C@H](C)N3C[C@H]2n2cc(C(=O)NCc4c(F)cc(F)cc4F)c(=O)c(O)c2C3=O)O1 [Example 92, (3′S,5R,7′R)-12′-hydroxy-3,3′-dimethyl-1′,11′-dioxo-N-(2,4,6-trifluorobenzyl)-1′,4′,5′,11′-tetrahydro-3′H,7′H-spiro[[1,4,2]dioxazole-5,6′-[2,7]methanopyrido[1,2-a][1,4]diazonine]-10′-carboxamide]
- CC50 at 5 days (in vitro): 24900 nM
- EC50 (pLAI reporter virus; read-out: RLUC 50% HS EC50): 409 nM
- EC50 (pLAI reporter virus; read-out: RLUC CCM EC50): 0.2 nM
- EC50 (HIV-1 (IIIB)): 0.7 nM

Compound: CCC1=NO[C@@]2(CC[C@H](C)N3C[C@H]2n2cc(C(=O)NCc4c(F)cc(F)cc4F)c(=O)c(O)c2C3=O)O1 [Example 93, (3′S,5R,7′R)-3-ethyl-12′-hydroxy-3′-methyl-1′,11′-dioxo-N-(2,4,6-trifluorobenzyl)-1′,4′,5′,11′-tetrahydro-3′H,7′H-spiro[[1,4,2]dioxazole-5,6′-[2,7]methanopyrido[1,2-a][1,4]diazonine]-10′-carboxamide]
- CC50 at 5 days (in vitro): 13600 nM
- EC50 (pLAI reporter virus; read-out: RLUC 50% HS EC50): 622 nM
- EC50 (pLAI reporter virus; read-out: RLUC CCM EC50): 0.2 nM
- EC50 (HIV-1 (IIIB)): 0.7 nM

Compound: CCC1=NO[C@@]2(CC[C@H](C)N3C[C@H]2n2cc(C(=O)NCc4ccc(F)cc4F)c(=O)c(O)c2C3=O)O1 [Example 94, (3′S,5R,7′R)—N-(2,4-difluorobenzyl)-3-ethyl-12′-hydroxy-3′-methyl-1′,11′-dioxo-1′,4′,5′,11′-tetrahydro-3′H,7′H-spiro[[1,4,2]dioxazole-5,6′-[2,7]methanopyrido[1,2-a][1,4]diazonine]-10′-carboxamide]
- CC50 at 5 days (in vitro): 30200 nM
- EC50 (pLAI reporter virus; read-out: RLUC 50% HS EC50): 684 nM
- EC50 (pLAI reporter virus; read-out: RLUC CCM EC50): 0.2 nM
- EC50 (HIV-1 (IIIB)): 1 nM

Compound: COC1=NO[C@@]2(CCCN3C[C@H]2n2cc(C(=O)NCc4c(F)cc(F)cc4F)c(=O)c(O)c2C3=O)C1 [Example 96, (5S,7′R)-12′-hydroxy-3-methoxy-1′,11′-dioxo-N-(2,4,6-trifluorobenzyl)-1′,4′,5′,11′-tetrahydro-3′H,4H,7′H-spiro[isoxazole-5,6′-[2,7]methanopyrido[1,2-a][1,4]diazonine]-10′-carboxamide]
- CC50 at 5 days (in vitro): 31400 nM
- EC50 (pLAI reporter virus; read-out: RLUC 50% HS EC50): 1.2 nM
- EC50 (pLAI reporter virus; read-out: RLUC CCM EC50): 0.2 nM
- EC50 (HIV-1 (IIIB)): 1.1 nM

Compound: COC1=NO[C@@]2(CC[C@@H](C)N3C[C@H]2n2cc(C(=O)NCc4c(F)cc(F)cc4F)c(=O)c(O)c2C3=O)C1 [Example 97, (3′R,5S,7′R)-12′-hydroxy-3-methoxy-3′-methyl-1′,11′-dioxo-N-(2,4,6-trifluorobenzyl)-1′,4′,5′,11′-tetrahydro-3′H,4H,7′H-spiro[isoxazole-5,6′-[2,7]methanopyrido[1,2-a][1,4]diazonine]-10′-carboxamide]
- CC50 at 5 days (in vitro): 10400 nM
- EC50 (pLAI reporter virus; read-out: RLUC 50% HS EC50): 1.8 nM
- EC50 (pLAI reporter virus; read-out: RLUC CCM EC50): 0.5 nM
- EC50 (HIV-1 (IIIB)): 2.5 nM

Compound: CC1=NO[C@@]2(CC[C@@H](C)N3C[C@H]2n2cc(C(=O)NCc4c(F)cc(F)cc4F)c(=O)c(O)c2C3=O)C1 [Example 98, (3′R,5S,7′R)-12′-hydroxy-3,3′-dimethyl-1′,11′-dioxo-N-(2,4,6-trifluorobenzyl)-1′,4′,5′,11′-tetrahydro-3′H,4H,7′H-spiro[isoxazole-5,6′-[2,7]methanopyrido[1,2-a][1,4]diazonine]-10′-carboxamide]
- CC50 at 5 days (in vitro): 12700 nM
- EC50 (pLAI reporter virus; read-out: RLUC 50% HS EC50): 7.4 nM
- EC50 (pLAI reporter virus; read-out: RLUC CCM EC50): 0.5 nM
- EC50 (HIV-1 (IIIB)): 3 nM

Compound: COC1=NO[C@@]2(CC[C@H](CF)N3C[C@H]2n2cc(C(=O)NCc4c(F)cc(F)cc4F)c(=O)c(O)c2C3=O)C1 [Example 99, (3′R,5S,7′R)-3′-(fluoromethyl)-12′-hydroxy-3-methoxy-1′,11′-dioxo-N-(2,4,6-trifluorobenzyl)-1′,4′,5′,11′-tetrahydro-3′H,4H,7′H-spiro[isoxazole-5,6′-[2,7]methanopyrido[1,2-a][1,4]diazonine]-10′-carboxamide]
- CC50 at 5 days (in vitro): 36500 nM
- EC50 (pLAI reporter virus; read-out: RLUC 50% HS EC50): 19.7 nM
- EC50 (pLAI reporter virus; read-out: RLUC CCM EC50): 0.2 nM
- EC50 (HIV-1 (IIIB)): 1.5 nM

Compound: COC1=NO[C@@]2(CC[C@H](CF)N3C[C@H]2n2cc(C(=O)NCc4ccc(F)cc4F)c(=O)c(O)c2C3=O)C1 [Example 100, (3′R,5S,7′R)—N-(2,4-difluorobenzyl)-3′-(fluoromethyl)-12′-hydroxy-3-methoxy-1′,11′-dioxo-1′,4′,5′,11′-tetrahydro-3′H,4H,7′H-spiro[isoxazole-5,6′-[2,7]methanopyrido[1,2-a][1,4]diazonine]-10′-carboxamide]
- CC50 at 5 days (in vitro): ≥ 50000 nM
- EC50 (pLAI reporter virus; read-out: RLUC 50% HS EC50): 13.5 nM
- EC50 (pLAI reporter virus; read-out: RLUC CCM EC50): 0.3 nM
- EC50 (HIV-1 (IIIB)): 1.5 nM

Compound: C[C@H]1CC[C@]2(CC(=O)NO2)[C@H]2CN1C(=O)c1c(O)c(=O)c(C(=O)NCc3c(F)cc(F)cc3F)cn12 [Example 101, (3′S,5S,7′R)-12′-hydroxy-3′-methyl-1′,3,11′-trioxo-N-(2,4,6-trifluorobenzyl)-1′,4′,5′,11′-tetrahydro-3′H,7′H-spiro[isoxazolidine-5,6′-[2,7]methanopyrido[1,2-a][1,4]diazonine]-10′-carboxamide]
- CC50 at 5 days (in vitro): ≥ 50000 nM
- EC50 (pLAI reporter virus; read-out: RLUC 50% HS EC50): 408 nM
- EC50 (pLAI reporter virus; read-out: RLUC CCM EC50): 34 nM
- EC50 (HIV-1 (IIIB)): 98.1 nM

Compound: C[C@H]1CC[C@@]2(CC(=O)N(Cc3ccc(F)cc3)O2)[C@H]2CN1C(=O)c1c(O)c(=O)c(C(=O)NCc3c(F)cc(F)cc3F)cn12 [Example 102, (3′S,5R,7′R)-2-(4-fluorobenzyl)-12′-hydroxy-3′-methyl-1′,3,11′-trioxo-N-(2,4,6-trifluorobenzyl)-1′,4′,5′,11′-tetrahydro-3′H,7′H-spiro[isoxazolidine-5,6′-[2,7]methanopyrido[1,2-a][1,4]diazonine]-10′-carboxamide]
- CC50 at 5 days (in vitro): 8790 nM
- EC50 (pLAI reporter virus; read-out: RLUC 50% HS EC50): 30 nM
- EC50 (pLAI reporter virus; read-out: RLUC CCM EC50): 2 nM
- EC50 (HIV-1 (IIIB)): 11.5 nM

Compound: C[C@H]1CC[C@]2(CC(=O)N(Cc3ccc4c(cnn4C)c3)O2)[C@H]2CN1C(=O)c1c(O)c(=O)c(C(=O)NCc3c(F)cc(F)cc3F)cn12 [Example 103, (3′S,5S,7′R)-12′-hydroxy-3′-methyl-2-((1-methyl-1H-indazol-5-yl)methyl)-1′,3,11′-trioxo-N-(2,4,6-trifluorobenzyl)-1′,4′,5′,11′-tetrahydro-3′H,7′H-spiro[isoxazolidine-5,6′-[2,7]methanopyrido[1,2-a][1,4]diazonine]-10′-carboxamide]
- CC50 at 5 days (in vitro): ≥ 50000 nM
- EC50 (pLAI reporter virus; read-out: RLUC 50% HS EC50): 0.4 nM
- EC50 (pLAI reporter virus; read-out: RLUC CCM EC50): 0.2 nM
- EC50 (HIV-1 (IIIB)): 1.5 nM
